Measurements: patent US6423834B1, “KDO aldolase and condensation reactions employed therewith” (The Scripps Research Institute, priority 1992, dated 2002)
Read-outs that look alike come from different tables or passages of the source.

Experiments:
[1] = system: KDO aldolase (EC 4.1.2.23); test: KDO aldolase-catalyzed aldol condensation of sugars with pyruvate (kinetic and relative rate measurements via remaining pyruvate); type: biochemical, Aureobacterium barkerei strain KDO-37-2; settings: for rel. V (relative rate of aldol condensation): pyruvate 10 mM, sugar 0.5 M, 0.1 M phosphate pH 7.5, 37° C., relative to D-arabinose
Description: (§1) Partially purified KDO aldolase simply obtained by ammonium sulfate precipitation (8.0 U/mL; 0.19 U/mg for degradation of KDO) was used in substrate-specificity studies reported herein. The KDO aldolase employed for the kinetic analysis reported herein, was further purified via DEAE sepharose and phenyl sepharose column chromatography to a specific activity of 5.7 U/mg. […] The enzymatic reaction favors the cleavage of KDO, with the equilibrium constant Keq=[pyruvate][arabinose]/KDO=9×10^−2M.
The rates for aldolase-catalyzed reactions were obtained by measuring the amount of remaining pyruvate, according the method of Kim (supra). The reactions were carried out in 0.1 M phosphate buffer (pH 7.5) containing: varied concentrations of pyruvate, 2.0, 3.33, 5, and 10 mM; varied concentrations of D-arabinose, 0.2, 0.25, 0.33, and 0.50 M in 0.5 mL of solution. Each solution was incubated at 37° C. Periodically, a small aliquot (25-100 μL) was withdrawn and mixed with an assay solution (1.4 mL) containing 0.1 M phosphate (pH 7.5) buffer, 0.3 mM NADH, and 20-30 U of L-lactate dehydrogenase. The decrease in absorbance at 340 nm was measured and converted into the amount of the unreacted pyruvate using 6220 M^−1cm^−1 for the molecular absorbance of NADH. The kinetic parameters were obtained from the Lineweaver-Burk plots.
For the relative rate measurements, the concentration of pyruvate (fluoropyruvate) and sugar were fixed at 10 mM and 0.5 M, respectively. Other conditions were the same as above.

[2] = system: KDO aldolase; settings: enzyme from E. coli; cited from earlier work
[3] = system: KDO aldolase; settings: enzyme from Aerobacter cloacae; cited from earlier work
[4] = Proportion of β-isomer by comparing 1H NMR spectra; type: physicochemical
Description: Finally, the aldol reaction with an unnatural sugar containing a fluorine atom was conducted to give 18 (19% of 19). By comparing the ^1H NMR spectra, the proportion of the β-isomer (10.71) of 18 was ca. 1.5 times higher than that of KDO (6.9%), probably due to the absence of furanose and 1<<5 lactone forms. […] (Kohlbrenner, W. E. and Fesik, S. W., J. Biol. Chem. 1985, 260, 14695.) We therefore synthesized 18 in a larger scale by combining the use of KDO aldolase and pyruvate decarboxylase, which made the workup procedure much easier.

[5] = system: KDO aldolase (EC 4.1.2.23); test: KDO aldolase degradation (cleavage) of KDO; type: biochemical, Aureobacterium barkerei strain KDO-37-2; settings: read-out: Km in the course of degradation
Description: It is disclosed herein that the Gram-positive bacterium Aureobacterium barkerei strain KDO-37-2 can be induced to contain high levels of KDO aldolase. The aldolase activity from this source was assayed according to Aminoff's method (Biochem. J. 1961, 81, 384). Two liters of culture contained 10.2 U based on the degradation of KDO. This KDO activity is 4 times and 8 times higher than the corresponding KDO activity from Escherichia coli K-12 and Aerobacter cloacae, respectively, as reported by Gharambor (supra).
as §1
With one slight modification, the incubation was carried out according to the procedure reported by Gharambor (supra). […] The enzyme activity was determined to be 1.45 U/mL for the degradation of KDO according to the method of Aminoff (Biochem. J. 1961, 81, 384). […]

O=CC[C@H](O)[C@H](O)CO [2-deoxy-D-ribose]
rel. V (relative rate of aldol condensation) [1]: 71%

O=C[C@@H](O)[C@H](O)[C@H](O)[C@H](O)CO [D-altrose]
rel. V (relative rate of aldol condensation) [1]: 25%

O=C[C@@H](O)[C@H](O)[C@H](O)CO [D-arabinose, reference compound]
Vmax ([1]; condensation of D-arabinose with pyruvate, enzyme purified to 5.7 U/mg): 0.73 U/mg

O=C[C@H](O)[C@H](O)[C@H](O)CO [D-ribose]
rel. V (relative rate of aldol condensation) [1]: 72% | rel. V [2]: < 5% | rel. V [3]: < 5%

O=C(O)C(=O)C[C@@H](O)[C@@H](O)[C@H](O)[C@H](O)CO [KDO, 3-deoxy-D-manno-2-octulosonic acid]
proportion of the β-isomer [4]: 6.9% | Km [5]: 6 mM

C[C@H](O)[C@@H](O)[C@@H](O)[C@H](O)C=O [L-fucose]
rel. V (relative rate of aldol condensation) [1]: rate not detectable

O=C(O)C(=O)CF [fluoropyruvate]
accepted as substrate for the condensation [1]: neither fluoropyruvate nor ketohexose was accepted
